Experimental data from US20250367229A1, “Treatment of Immune-Related Disorders, Kidney Disorders, Liver Disorders, Hemolytic Disorders, and Oxidative Stress-Associated Disorders Using NRH, NARH and Reduced Derivatives Thereof” (MitoPower LLC, priority 2021, published 2025).

Legend:
CD4^+ T cells [1] = assay: Mitochondrial membrane depolarization (JC-1, flow cytometry) in CD4+ T cells; format: cell-based, human; conditions: 250 μM, 24 hr, unstimulated or stimulated with anti-CD3 and anti-CD28 antibodies
Protocol: (§1) PBMCs (10^6 cells per test group) obtained from healthy human adult donors were unstimulated or stimulated with anti-CD3 and anti-CD28 antibodies to induce T-cell activation, in the absence or presence of 250 μM of NRH or NRH-triacetate (NRHTA). Measurements were made at 5, 15 and 24 hr after treatment.
(§2) After the indicated time of incubation, the PBMCs were stained with anti-CD3, anti-CD4 and anti-CD8 antibodies (Biolegend), JC-1 (1 μM, Thermo Fisher) and annexin V (Thermo Fisher) prior to analysis by flow cytometry. Annexin V binds to cell-surface phosphatidylserine, which is a marker for different forms of cell death including apoptosis and necrosis. The stained cells were re-suspended in phosphate-buffered saline (PBS) and acquired in a Cytek Aurora flow cytometer using a FlowJo software (v10) for analysis. About 200,000-300,000 cells were acquired in the flow cytometer for analysis. Standard procedures for spectral compensation were performed to obtain cell populations. Lymphocytes identified by forward and side scatter were gated to obtain CD3^+/CD4^+ and CD3^+/CD8^+ T-cell populations. Those T-cell populations were gated to identify the red and green signals for JC-1 aggregate and monomer, respectively, and annexin V. The percentage of cells staining green by JC-1 monomer was used to determine the percentage of cells with depolarized mitochondria. […]

CD8^+ T cells [2] = assay: Mitochondrial membrane depolarization (JC-1, flow cytometry) in CD8+ T cells; format: cell-based, human; conditions: 250 μM, 24 hr, unstimulated or stimulated with anti-CD3 and anti-CD28 antibodies
Protocol: as §1, §2

CD8^+ T cells [3] = assay: Ex vivo polyclonal immune activation model: intracellular cytokine production in CD8+ T cells (flow cytometry); format: cell-based, human; conditions: 250 μM, 18 hours, PBMCs stimulated with anti-CD3 and anti-CD28 antibodies; p<0.05 Mann-Whitney U test
Protocol: Heparinized venous blood was collected from healthy human adult donors. Peripheral blood mononuclear cells (PBMCs) were isolated by Ficoll-Hypaque density-gradient centrifugation. PBMCs (1.0×10^6) were seeded in round-bottom, 96-well plates in 200 μL of medium, unstimulated or stimulated with an anti-CD3 antibody ([…], clone-HIT3a, Biolegend) plus an anti-CD28 antibody (1 μg/mL, clone-CD28.2, Biolegend) to induce T-cell activation, and incubated in cell-culture medium. The PBMCs were unstimulated or stimulated with anti-CD3 and anti-CD28 antibodies to induce T-cell activation, in the absence or presence of 250 μM NRH. After 18 hours of incubation, lymphocytes were analyzed for intracellular levels of IFN-γ, TNF-α and IL-2 by flow cytometry. Intracellular cytokine production was stopped by treating the cells with Golgi stop after 1 hr of treatment.

[4] = Distribution of intraperitoneally injected NRH to whole blood, kidney and liver (LCMS/MS); format: in vivo, Wistar Han rat; conditions: single intraperitoneal injection, 500 mg/kg, after 4 hr
Protocol: Freshly weighed NRH (100 mg) was dissolved in 500 μL sterile IP water. The NRH solution was intraperitoneally injected into a healthy, male Wistar Han rat (200 g) at a single dose of 500 mg/kg. 500 μL of sterile IP water was intraperitoneally injected into another healthy, male Wistar Han rat (200 g) as a control.
The animals were euthanized by cervical dislocation under anesthesia after 4 hr. Whole blood was collected in K2EDTA vacutainer tubes by cardiac puncture using a 2 mL syringe. The liver and kidney were harvested subsequently by dissection. The tissues were placed in a petridish, rinsed with ice-cold saline, and then weighed. 72 mg of liver of the treated animal and 74.3 mg of liver of the untreated animal were homogenized, and 71.6 mg of kidney of the treated animal and 70.7 mg of kidney of the untreated animal were homogenized. Homogenization of the tissues was carried out separately in 3 mL of ice-cold methanol (about 20 mg/mL of tissue in methanol). The homogenate was snap-frozen in liquid nitrogen and maintained at −80° C. for analysis. The blood samples were maintained at 2-8° C. for analysis.
250 μL of whole blood from the K2EDTA tubes was added to a tube containing 50 μL of 500 ng/ml of tolbutamide as the internal standard. 600 μL of ice-cold HPLC-grade methanol was added to this mixture for extraction of nicotinamide adenine dinucleotide (NAD^+) and NRH. The resulting mixture was mixed well and centrifuged at 12500 rpm for 10 min. The supernatant was measured for NAD^+ and NRH by LCMS/MS. For the liver and kidney tissues, 250 μL of the tissue homogenate was processed in the same manner.

CD4^+ T cells [5] = assay: Cell death including apoptosis (annexin V, flow cytometry) of CD4+ T cells with depolarized mitochondria; format: cell-based, human; conditions: 250 μM, 24 hr, unstimulated or stimulated with anti-CD3 and anti-CD28 antibodies
Protocol: as §1, §2

red blood cells (RBCs) = assay: H2O2-induced hemolysis in vitro; format: cell-based; conditions: 2000, 200 and 20 μM, pre-incubation 1 hr at 37° C., then H2O2 4 hr
Protocol: Individual test compounds were dissolved in 0.9% normal saline to prepare 0.3 M stock solutions. A 0.3 M stock solution was added to a 20% suspension of washed red blood cells (RBCs) in saline to obtain final concentrations of 2000 μM, 200 μM and 20 μM of the compound. The RBC suspensions were incubated with the test compound at 37° C. for 1 hr prior to testing. A 2.5% H2O2 solution was prepared fresh by dilution with normal saline and chilled at 2-8° C. before use. Each RBC suspension containing the test compound was split into tubes A and B. 250 μL of the chilled H2O2 solution was added to 250 μL of RBC suspension in each tube while maintaining the tubes in an ice bath. The tubes were incubated at 37° C. for 4 hr, and then 4.5 mL of saline or de-ionized water was added to tube A or tube B, respectively. After the tubes were incubated for 10 min, the mixture in the tubes was centrifuged at 1800 g, and then absorbance was measured in the supernatant at 540 nm. The percentage of hemolysis was calculated as: […]

CD8^+ T cells [6] = assay: Cell death including apoptosis (annexin V, flow cytometry) of CD8+ T cells with depolarized mitochondria; format: cell-based, human; conditions: 250 μM, 24 hr, unstimulated or stimulated with anti-CD3 and anti-CD28 antibodies
Protocol: as §1, §2

## NC(=O)C1=CN([C@@H]2O[C@H](CO)[C@@H](O)[C@H]2O)C=CC1 [NRH, N-(β-D-ribofuranosyl)dihydronicotinamide]
CD4^+ T cells [1]
  mitochondrial membrane depolarization in CD4+ T cells: significantly induced
CD8^+ T cells [2]
  mitochondrial membrane depolarization in CD8+ T cells: significantly induced
CD8^+ T cells [3]
  production of IFN-γ in activated CD8+ T cells: significantly reduced
  production of IL-2 in activated CD8+ T cells: significantly reduced
  production of TNF-α in activated CD8+ T cells: significantly reduced
[4]
  concentration of NRH in the kidney (area ratio NRH/IS) versus vehicle: increased concentrations
  concentration of NRH in the liver (area ratio NRH/IS) versus vehicle: increased concentrations
  concentration of NRH in whole blood (area ratio NRH/IS) versus vehicle: increased concentrations
CD4^+ T cells [5]
  cell death including apoptosis of CD4+ T cells with depolarized mitochondria: reduced cell death
Red blood cells (RBCs)
  H2O2-induced hemolysis: reduced H2O2-induced hemolysis
CD8^+ T cells [6]
  cell death including apoptosis of CD8+ T cells with depolarized mitochondria: reduced cell death
